Data on 18 molecules can be found in ChEMBL document CHEMBL5291721, “A preclinical secondary pharmacology resource illuminates target-adverse drug reaction associations of marketed drugs” (Nat Commun, 2023).

Experiment [1] concerns the target Gamma-aminobutyric acid receptor subunit alpha-1/alpha-2/beta-2/gamma-2 (Homo sapiens, UniProt P14867+P18507+P47869+P47870). In kind it is functional, cell-based.
The target of experiment [2] is T1, Gastric inhibitory polypeptide receptor (Homo sapiens, UniProt P48546).
T1 sequence (P48546 whole entry): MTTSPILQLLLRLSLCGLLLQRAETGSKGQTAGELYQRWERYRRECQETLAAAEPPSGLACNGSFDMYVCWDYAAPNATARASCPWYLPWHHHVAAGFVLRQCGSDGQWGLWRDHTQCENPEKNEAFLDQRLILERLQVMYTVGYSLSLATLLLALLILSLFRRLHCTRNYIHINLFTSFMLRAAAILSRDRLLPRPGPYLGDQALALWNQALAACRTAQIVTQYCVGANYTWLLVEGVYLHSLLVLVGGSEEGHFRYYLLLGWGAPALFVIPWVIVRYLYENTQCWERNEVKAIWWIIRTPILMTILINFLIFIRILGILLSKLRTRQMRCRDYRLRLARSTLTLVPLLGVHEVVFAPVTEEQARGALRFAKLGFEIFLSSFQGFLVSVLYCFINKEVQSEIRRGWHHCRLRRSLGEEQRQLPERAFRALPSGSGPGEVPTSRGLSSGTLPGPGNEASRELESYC

Experiment [3] addresses T2, B1 bradykinin receptor (Homo sapiens, UniProt P46663).
T2 sequence (P46663 whole entry): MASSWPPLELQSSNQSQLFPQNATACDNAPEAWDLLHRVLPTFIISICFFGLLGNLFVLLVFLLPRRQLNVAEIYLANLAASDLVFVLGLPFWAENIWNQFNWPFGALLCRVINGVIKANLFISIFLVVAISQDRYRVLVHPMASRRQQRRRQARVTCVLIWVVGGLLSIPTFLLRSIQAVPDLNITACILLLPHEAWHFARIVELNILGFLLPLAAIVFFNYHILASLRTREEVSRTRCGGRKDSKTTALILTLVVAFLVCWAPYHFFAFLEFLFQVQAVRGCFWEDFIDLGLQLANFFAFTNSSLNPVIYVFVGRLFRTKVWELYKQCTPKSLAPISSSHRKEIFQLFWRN

Experiment [4] deals with T3, Endothelin receptor type B (Homo sapiens, UniProt P24530).
T3 sequence (P24530 whole entry): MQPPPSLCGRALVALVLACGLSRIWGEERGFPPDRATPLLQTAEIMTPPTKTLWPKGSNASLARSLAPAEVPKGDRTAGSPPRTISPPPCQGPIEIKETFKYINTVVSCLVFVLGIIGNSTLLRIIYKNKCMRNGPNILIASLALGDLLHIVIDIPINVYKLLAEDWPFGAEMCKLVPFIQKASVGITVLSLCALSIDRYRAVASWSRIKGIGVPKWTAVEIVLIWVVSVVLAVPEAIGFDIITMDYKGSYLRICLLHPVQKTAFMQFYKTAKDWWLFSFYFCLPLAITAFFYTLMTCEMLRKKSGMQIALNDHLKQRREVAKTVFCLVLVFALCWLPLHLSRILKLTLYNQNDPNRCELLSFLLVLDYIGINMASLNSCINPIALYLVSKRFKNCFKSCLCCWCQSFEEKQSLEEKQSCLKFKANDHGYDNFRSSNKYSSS

Experiment [5] has as its target T4, 5-hydroxytryptamine receptor 1A (Homo sapiens, UniProt P08908).
T4 sequence (P08908 whole entry): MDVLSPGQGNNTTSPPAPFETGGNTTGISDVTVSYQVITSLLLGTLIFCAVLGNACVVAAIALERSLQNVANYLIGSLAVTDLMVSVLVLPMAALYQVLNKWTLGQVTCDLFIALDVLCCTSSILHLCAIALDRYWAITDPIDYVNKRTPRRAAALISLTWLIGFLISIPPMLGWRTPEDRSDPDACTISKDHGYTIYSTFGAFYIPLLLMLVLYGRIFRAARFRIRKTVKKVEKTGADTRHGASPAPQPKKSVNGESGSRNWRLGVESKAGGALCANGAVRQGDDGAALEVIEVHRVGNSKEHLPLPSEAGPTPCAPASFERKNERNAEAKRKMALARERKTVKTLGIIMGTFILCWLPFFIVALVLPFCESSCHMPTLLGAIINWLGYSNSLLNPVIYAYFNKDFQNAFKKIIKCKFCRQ

For experiment [6], the target named is T5, Alpha-1A adrenergic receptor (Homo sapiens, UniProt P35348).
T5 sequence (P35348 whole entry): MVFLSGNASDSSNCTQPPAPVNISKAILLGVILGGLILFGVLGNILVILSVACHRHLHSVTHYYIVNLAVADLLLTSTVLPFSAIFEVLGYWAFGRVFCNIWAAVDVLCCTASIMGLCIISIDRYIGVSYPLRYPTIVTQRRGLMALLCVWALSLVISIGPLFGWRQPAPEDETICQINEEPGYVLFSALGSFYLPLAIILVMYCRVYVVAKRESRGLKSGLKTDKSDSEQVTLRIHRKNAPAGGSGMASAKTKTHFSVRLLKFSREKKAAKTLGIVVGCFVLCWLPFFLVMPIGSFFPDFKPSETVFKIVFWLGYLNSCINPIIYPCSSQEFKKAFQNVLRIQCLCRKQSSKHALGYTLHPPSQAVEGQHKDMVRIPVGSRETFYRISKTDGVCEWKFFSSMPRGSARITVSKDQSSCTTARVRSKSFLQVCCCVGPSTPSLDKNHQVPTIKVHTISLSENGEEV

For experiment [7], the target named is Voltage-dependent N-type calcium channel subunit alpha-1B (Rattus norvegicus, UniProt Q02294). The class given is functional.
Also: assay procedure not described here.

Gamma-aminobutyric acid receptor subunit alpha-1/alpha-2/beta-2/gamma-2, sequence (P14867 whole entry): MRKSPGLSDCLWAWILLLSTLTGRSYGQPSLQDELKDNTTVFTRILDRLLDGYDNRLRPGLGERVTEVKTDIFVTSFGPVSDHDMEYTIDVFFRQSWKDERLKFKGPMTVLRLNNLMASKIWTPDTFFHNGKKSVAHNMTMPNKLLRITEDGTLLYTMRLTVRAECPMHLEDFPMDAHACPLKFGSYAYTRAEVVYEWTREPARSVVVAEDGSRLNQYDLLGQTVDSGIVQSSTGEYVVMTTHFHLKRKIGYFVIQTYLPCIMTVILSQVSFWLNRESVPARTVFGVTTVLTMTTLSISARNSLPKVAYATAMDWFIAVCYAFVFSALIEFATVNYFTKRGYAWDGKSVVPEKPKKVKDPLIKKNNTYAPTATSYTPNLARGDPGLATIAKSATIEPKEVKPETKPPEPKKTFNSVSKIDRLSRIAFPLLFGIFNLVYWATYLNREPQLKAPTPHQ
Gamma-aminobutyric acid receptor subunit alpha-1/alpha-2/beta-2/gamma-2, sequence (P47870 whole entry): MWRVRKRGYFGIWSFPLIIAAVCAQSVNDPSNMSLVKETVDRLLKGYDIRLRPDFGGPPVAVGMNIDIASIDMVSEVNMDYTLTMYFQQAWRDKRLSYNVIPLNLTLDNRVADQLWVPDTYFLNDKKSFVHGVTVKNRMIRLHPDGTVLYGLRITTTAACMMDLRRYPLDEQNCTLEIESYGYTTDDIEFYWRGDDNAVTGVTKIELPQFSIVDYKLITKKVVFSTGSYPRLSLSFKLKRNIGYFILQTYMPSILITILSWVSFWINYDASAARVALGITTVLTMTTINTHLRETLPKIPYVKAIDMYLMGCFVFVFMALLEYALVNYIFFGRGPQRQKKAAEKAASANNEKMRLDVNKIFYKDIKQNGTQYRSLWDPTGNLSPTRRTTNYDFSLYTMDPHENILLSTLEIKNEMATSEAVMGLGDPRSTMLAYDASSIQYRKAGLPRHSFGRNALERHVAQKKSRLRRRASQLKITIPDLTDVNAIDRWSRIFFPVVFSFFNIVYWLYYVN
Gamma-aminobutyric acid receptor subunit alpha-1/alpha-2/beta-2/gamma-2, sequence (P18507 whole entry): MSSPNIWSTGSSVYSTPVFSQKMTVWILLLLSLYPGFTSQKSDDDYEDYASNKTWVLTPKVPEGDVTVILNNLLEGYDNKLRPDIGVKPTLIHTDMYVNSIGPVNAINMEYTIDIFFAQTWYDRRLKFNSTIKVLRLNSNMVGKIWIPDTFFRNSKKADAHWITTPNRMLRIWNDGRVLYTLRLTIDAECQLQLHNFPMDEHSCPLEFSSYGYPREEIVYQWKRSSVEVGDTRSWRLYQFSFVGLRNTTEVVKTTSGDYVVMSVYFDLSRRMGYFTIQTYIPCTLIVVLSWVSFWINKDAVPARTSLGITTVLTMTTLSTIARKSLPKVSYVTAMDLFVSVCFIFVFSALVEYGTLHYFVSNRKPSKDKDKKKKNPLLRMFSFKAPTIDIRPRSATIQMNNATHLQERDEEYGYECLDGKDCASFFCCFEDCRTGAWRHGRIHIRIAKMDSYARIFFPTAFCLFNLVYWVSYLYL
Gamma-aminobutyric acid receptor subunit alpha-1/alpha-2/beta-2/gamma-2, sequence (P47869 whole entry): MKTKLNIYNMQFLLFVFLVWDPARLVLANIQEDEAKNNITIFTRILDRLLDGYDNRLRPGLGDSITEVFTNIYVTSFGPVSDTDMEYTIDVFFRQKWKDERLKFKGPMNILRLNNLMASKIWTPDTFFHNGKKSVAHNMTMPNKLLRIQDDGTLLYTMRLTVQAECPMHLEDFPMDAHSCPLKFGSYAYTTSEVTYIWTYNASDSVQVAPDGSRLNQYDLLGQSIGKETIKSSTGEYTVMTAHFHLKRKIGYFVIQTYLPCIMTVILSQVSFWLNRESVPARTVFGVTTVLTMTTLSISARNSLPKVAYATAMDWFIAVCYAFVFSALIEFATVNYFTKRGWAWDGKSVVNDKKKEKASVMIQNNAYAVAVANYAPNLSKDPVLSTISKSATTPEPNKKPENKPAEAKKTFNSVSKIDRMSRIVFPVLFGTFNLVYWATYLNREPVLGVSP
Voltage-dependent N-type calcium channel subunit alpha-1B, sequence (Q02294 whole entry): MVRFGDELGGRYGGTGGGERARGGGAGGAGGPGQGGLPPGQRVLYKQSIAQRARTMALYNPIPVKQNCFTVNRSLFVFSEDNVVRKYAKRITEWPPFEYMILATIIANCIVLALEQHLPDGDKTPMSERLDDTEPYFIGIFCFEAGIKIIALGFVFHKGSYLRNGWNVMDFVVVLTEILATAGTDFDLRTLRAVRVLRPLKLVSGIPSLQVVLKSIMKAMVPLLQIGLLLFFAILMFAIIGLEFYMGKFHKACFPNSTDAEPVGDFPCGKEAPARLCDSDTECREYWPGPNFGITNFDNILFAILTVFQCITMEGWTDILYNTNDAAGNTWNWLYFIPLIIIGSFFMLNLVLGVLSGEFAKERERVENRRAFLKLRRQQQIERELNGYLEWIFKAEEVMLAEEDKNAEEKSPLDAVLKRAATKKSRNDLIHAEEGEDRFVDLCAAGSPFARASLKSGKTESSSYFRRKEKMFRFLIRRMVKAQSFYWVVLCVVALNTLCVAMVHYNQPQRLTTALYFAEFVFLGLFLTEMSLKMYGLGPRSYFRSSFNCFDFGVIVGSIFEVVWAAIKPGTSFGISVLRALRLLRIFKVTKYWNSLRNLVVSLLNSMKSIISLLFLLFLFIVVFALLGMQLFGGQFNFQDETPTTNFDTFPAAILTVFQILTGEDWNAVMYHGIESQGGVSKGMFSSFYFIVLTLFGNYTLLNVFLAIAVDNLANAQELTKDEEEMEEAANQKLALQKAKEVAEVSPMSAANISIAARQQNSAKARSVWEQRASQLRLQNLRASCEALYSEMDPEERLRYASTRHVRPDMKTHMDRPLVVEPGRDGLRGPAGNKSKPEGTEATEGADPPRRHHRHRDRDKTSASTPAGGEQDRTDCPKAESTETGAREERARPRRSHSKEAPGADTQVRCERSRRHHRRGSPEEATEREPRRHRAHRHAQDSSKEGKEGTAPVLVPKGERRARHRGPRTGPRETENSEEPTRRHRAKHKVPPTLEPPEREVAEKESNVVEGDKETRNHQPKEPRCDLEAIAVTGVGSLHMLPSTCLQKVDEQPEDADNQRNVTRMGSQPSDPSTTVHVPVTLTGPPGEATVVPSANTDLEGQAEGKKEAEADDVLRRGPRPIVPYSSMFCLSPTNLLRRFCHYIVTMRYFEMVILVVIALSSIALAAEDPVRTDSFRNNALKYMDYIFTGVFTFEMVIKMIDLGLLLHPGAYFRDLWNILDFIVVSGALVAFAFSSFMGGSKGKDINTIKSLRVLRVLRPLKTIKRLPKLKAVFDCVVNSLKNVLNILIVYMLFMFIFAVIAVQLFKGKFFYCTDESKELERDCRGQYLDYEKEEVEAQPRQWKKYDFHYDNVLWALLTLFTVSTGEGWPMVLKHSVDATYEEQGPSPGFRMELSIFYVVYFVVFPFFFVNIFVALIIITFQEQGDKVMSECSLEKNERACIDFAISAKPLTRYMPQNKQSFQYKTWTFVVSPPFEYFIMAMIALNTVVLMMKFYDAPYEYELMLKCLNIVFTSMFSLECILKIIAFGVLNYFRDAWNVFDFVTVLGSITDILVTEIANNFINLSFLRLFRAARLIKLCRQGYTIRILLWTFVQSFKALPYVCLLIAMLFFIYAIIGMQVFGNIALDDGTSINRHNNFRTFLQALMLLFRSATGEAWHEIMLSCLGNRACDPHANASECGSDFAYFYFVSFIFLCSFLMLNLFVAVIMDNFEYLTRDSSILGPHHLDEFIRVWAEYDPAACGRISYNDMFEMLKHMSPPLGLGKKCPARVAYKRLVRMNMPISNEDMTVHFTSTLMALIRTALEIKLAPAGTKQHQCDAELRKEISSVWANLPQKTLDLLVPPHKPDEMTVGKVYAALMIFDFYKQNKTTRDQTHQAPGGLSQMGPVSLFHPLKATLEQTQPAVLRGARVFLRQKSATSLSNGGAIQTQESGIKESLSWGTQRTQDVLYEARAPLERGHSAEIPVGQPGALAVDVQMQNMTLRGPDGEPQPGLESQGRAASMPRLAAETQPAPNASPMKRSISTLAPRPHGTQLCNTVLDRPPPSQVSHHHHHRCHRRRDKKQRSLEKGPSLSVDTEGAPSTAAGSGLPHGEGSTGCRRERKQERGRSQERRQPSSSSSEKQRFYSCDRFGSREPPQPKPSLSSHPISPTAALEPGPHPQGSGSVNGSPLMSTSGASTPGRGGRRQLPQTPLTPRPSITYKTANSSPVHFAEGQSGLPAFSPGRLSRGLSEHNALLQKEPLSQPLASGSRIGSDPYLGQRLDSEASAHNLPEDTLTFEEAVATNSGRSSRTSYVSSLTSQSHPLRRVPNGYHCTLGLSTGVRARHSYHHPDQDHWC

Regarding `CCCCC(C)(O)C/C=C/[C@H]1[C@H](O)CC(=O)[C@@H]1CCCCCCC(=O)OC` (stereo partly drawn) [MISOPROSTOL], in experiment [1], the AC50 was over 30 µM.

In experiment [1], `COc1ccc(C(=O)N2CCN(c3ccc4c(c3)CCC(=O)N4)CC2)cc1OC` [VESNARINONE] had an AC50 of over 30 µM.

In experiment [1], `CCCOc1ccc(C(=O)OCCN(CC)CC)cc1N` [PROPARACAINE] displayed a half-maximal activity concentration (AC50) of over 30 µM.

`Nc1nc2ccc(OC(F)(F)F)cc2s1` [RILUZOLE] returned an AC50 in experiment [1] of over 30 µM.

`[H]/N=C(/N)c1ccc(NCc2nc3cc(C(=O)N(CCC(=O)O)c4ccccn4)ccc3n2C)cc1` [DABIGATRAN] yielded an AC50 in experiment [1] of over 30 µM.

The molecule `O=C1CN=C(c2ccccc2)c2cc(Cl)ccc2N1CC(F)(F)F` [HALAZEPAM] came in with an AC50 in experiment [1] of over 30 µM.

In experiment [1], `C=C1CC[C@@]2(O)[C@H]3Cc4ccc(O)c5c4[C@@]2(CCN3CC2CC2)[C@H]1O5` displayed an AC50 of over 30 µM.

On to `Nc1ncnc2c1ncn2[C@@H]1O[C@H](COP(=O)(O)O)[C@@H](O)[C@H]1O` [ADENOSINE PHOSPHATE], for which, in experiment [1], the AC50 was over 30 µM.

For the molecule `CCCCCOC(=O)Nc1nc(=O)n([C@@H]2O[C@H](C)[C@@H](O)[C@H]2O)cc1F` [CAPECITABINE], in experiment [1], the AC50 is over 30 µM.

The molecule `Cc1cccc(C)c1NC(=O)C1CCCCN1C` (stereo not drawn) [MEPIVACAINE] had a concentration at half-maximal activity (AC50) in experiment [1] of over 30 µM.

As to `CC/C=C\C/C=C\C/C=C\CCCCCCCC(=O)O` [LINOLENIC ACID], the AC50 in experiment [1] is over 10 µM.

`NC(=O)C[S+]([O-])C(c1ccccc1)c1ccccc1` (stereo not drawn) [MODAFINIL]: the AC50 in experiment [2] is over 30 µM; in experiment [3], over 30 µM; in experiment [4] it was 23.5 µM; in experiment [5], over 10 µM; in experiment [6], over 10 µM; in experiment [7], over 10 µM.

In the case of `CCCCCN(C)CCC(O)(P(=O)(O)O)P(=O)(O)O` [IBANDRONIC ACID], the AC50 in experiment [2] was over 30 µM; in experiment [3] it was over 30 µM; in experiment [4] it was over 30 µM; in experiment [5], over 10 µM; in experiment [6], over 10 µM; in experiment [7], over 10 µM.

Regarding `Cc1ccc(-c2nc3ccc(C)cn3c2CC(=O)N(C)C)cc1` [ZOLPIDEM], the AC50 in experiment [2] is over 30 µM; in experiment [3], over 30 µM; in experiment [4], over 30 µM; in experiment [5] it was over 10 µM; in experiment [6], 6.76 µM; in experiment [7], over 10 µM.

Turning to `CCCCCCC(C)(C)c1cc(O)c2c(c1)OC(C)(C)C1CCC(=O)CC21` (stereo not drawn) [NABILONE], in experiment [1], the AC50 is over 30 µM.

For the molecule `C[C@H]1C[C@@H]2[C@H]([C@@H](O)C[C@@]3(C)[C@H]2CC[C@]3(O)C(=O)COC(=O)CCC(=O)O)[C@@]2(C)C=CC(=O)C=C12` [METHYLPREDNISOLONE HEMISUCCINATE], the AC50 in experiment [1] was over 30 µM.

Take `O=C(O)CCCc1ccccc1` [PHENYLBUTANOIC ACID]: the AC50 in experiment [2] was over 30 µM; in experiment [3], over 10 µM; in experiment [4], over 30 µM; in experiment [5], over 10 µM; in experiment [6], 14 µM; in experiment [7], over 10 µM.

With `CN[C@@H](C)[C@H](O)c1ccccc1` [EPHEDRINE], the AC50 in experiment [2] is over 30 µM; in experiment [3] it was over 30 µM; in experiment [4] it was over 30 µM; in experiment [5] it was over 10 µM; in experiment [6] it was over 10 µM; in experiment [7], over 10 µM.

The AC50 is the concentration at which the activity in the assay is half-maximal.
